Values belong to the compound of their own block, whether it stands above or below them.
How the values were obtained:
Galium spurium = assay: Test Example 4: herbicidal effect by soil treatment (symbol Q); format: in vivo; conditions: application herbicide amount 320 g/ha
Summary of the method: (§1)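 Seeds were sown in sterilized diluvial soil, covered with about 1.5 cm of soil, and the soil surface was sprayed with a water-diluted emulsion of the compound at a predetermined rate. Plants grew in a greenhouse at 25° C. to 30° C.; effects were scored visually 3 weeks after application.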

[1] = tested on: Echinochloa crus-galli var. crus-galli; assay: Test Example 4: herbicidal effect by soil treatment (symbol H); format: in vivo; conditions: application herbicide amount 320 g/ha
Summary of the method: as §1

Chenopodium album = assay: Test Example 4: herbicidal effect by soil treatment (symbol O); format: in vivo; conditions: application herbicide amount 320 g/ha
Summary of the method: as §1

Alopecurus myosuroides = assay: Test Example 4: herbicidal effect by soil treatment (symbol J); format: in vivo; conditions: application herbicide amount 320 g/ha
Summary of the method: as §1

Lolium multiflorum Lam. = assay: Test Example 4: herbicidal effect by soil treatment (symbol K); format: in vivo; conditions: application herbicide amount 320 g/ha
Summary of the method: as §1

Stellaria media = assay: Test Example 4: herbicidal effect by soil treatment (symbol P); format: in vivo; conditions: application herbicide amount 320 g/ha
Summary of the method: as §1

SMILES: CON=C(C)CC1CC(OC)=C(c2c(C)cc(C)cc2C)C1=O (stereo not shown) [1-001, 2-mesityl-3-methoxy-5-{2-(methoxyimino)propyl}cyclopent-2-enone]
- Q (Galium spurium) herbicidal effect grade (Galium spurium): 0 (Herbicidal ratio of 5% or lower (almost no effect))
- H (Echinochloa crus-galli var. crus-galli) herbicidal effect grade [1]: 0 (Herbicidal ratio of 5% or lower (almost no effect))
- O (Chenopodium album) herbicidal effect grade (Chenopodium album): 0 (Herbicidal ratio of 5% or lower (almost no effect))
- J (Alopecurus myosuroides) herbicidal effect grade (Alopecurus myosuroides): 0 (Herbicidal ratio of 5% or lower (almost no effect))
- melting point: 92 to 98 °C
- K (Lolium multiflorum Lam.) herbicidal effect grade (Lolium multiflorum Lam.): 0 (Herbicidal ratio of 5% or lower (almost no effect))
- P (Stellaria media) herbicidal effect grade (Stellaria media): 0 (Herbicidal ratio of 5% or lower (almost no effect))

SMILES: CON=C(C)CC1CC(O)=C(c2c(C)cc(C)cc2C)C1=O (stereo not shown) [1-002, 3-hydroxy-2-mesityl-5-{2-(methoxyimino)propyl}cyclopent-2-enone]
- Q (Galium spurium) herbicidal effect grade (Galium spurium): 1 (Herbicidal ratio of 5% or higher and lower than 20%)
- H (Echinochloa crus-galli var. crus-galli) herbicidal effect grade [1]: 5 (Herbicidal ratio of 90% or more (almost completely withered))
- O (Chenopodium album) herbicidal effect grade (Chenopodium album): 5 (Herbicidal ratio of 90% or more (almost completely withered))
- J (Alopecurus myosuroides) herbicidal effect grade (Alopecurus myosuroides): 5 (Herbicidal ratio of 90% or more (almost completely withered))
- melting point: 170 to 173 °C
- K (Lolium multiflorum Lam.) herbicidal effect grade (Lolium multiflorum Lam.): 5 (Herbicidal ratio of 90% or more (almost completely withered))
- P (Stellaria media) herbicidal effect grade (Stellaria media): 3 (Herbicidal ratio of 40% or higher and lower than 70%)

SMILES: CCON=C(C)CC1CC(O)=C(c2c(C)cc(C)cc2C)C1=O (stereo not shown) [1-003]
- Q (Galium spurium) herbicidal effect grade (Galium spurium): 0 (Herbicidal ratio of 5% or lower (almost no effect))
- H (Echinochloa crus-galli var. crus-galli) herbicidal effect grade [1]: 5 (Herbicidal ratio of 90% or more (almost completely withered))
- J (Alopecurus myosuroides) herbicidal effect grade (Alopecurus myosuroides): 5 (Herbicidal ratio of 90% or more (almost completely withered))
- melting point: 135 to 140 °C
- K (Lolium multiflorum Lam.) herbicidal effect grade (Lolium multiflorum Lam.): 5 (Herbicidal ratio of 90% or more (almost completely withered))
- P (Stellaria media) herbicidal effect grade (Stellaria media): 3 (Herbicidal ratio of 40% or higher and lower than 70%)

SMILES: CCC(CC1CC(O)=C(c2c(C)cc(C)cc2C)C1=O)=NOC (stereo not shown) [1-038]
- Q (Galium spurium) herbicidal effect grade (Galium spurium): 0 (Herbicidal ratio of 5% or lower (almost no effect))
- H (Echinochloa crus-galli var. crus-galli) herbicidal effect grade [1]: 5 (Herbicidal ratio of 90% or more (almost completely withered))
- O (Chenopodium album) herbicidal effect grade (Chenopodium album): 0 (Herbicidal ratio of 5% or lower (almost no effect))
- J (Alopecurus myosuroides) herbicidal effect grade (Alopecurus myosuroides): 5 (Herbicidal ratio of 90% or more (almost completely withered))
- melting point: 147 to 149 °C
- K (Lolium multiflorum Lam.) herbicidal effect grade (Lolium multiflorum Lam.): 5 (Herbicidal ratio of 90% or more (almost completely withered))
- P (Stellaria media) herbicidal effect grade (Stellaria media): 0 (Herbicidal ratio of 5% or lower (almost no effect))

SMILES: CON=CCC1CC(O)=C(c2c(C)cc(C)cc2C)C1=O (stereo not shown) [1-050]
- H (Echinochloa crus-galli var. crus-galli) herbicidal effect grade [1]: 4 (Herbicidal ratio of 70% or higher and lower than 90%)
- O (Chenopodium album) herbicidal effect grade (Chenopodium album): 0 (Herbicidal ratio of 5% or lower (almost no effect))
- J (Alopecurus myosuroides) herbicidal effect grade (Alopecurus myosuroides): 0 (Herbicidal ratio of 5% or lower (almost no effect))
- melting point: 96 to 108 °C
- K (Lolium multiflorum Lam.) herbicidal effect grade (Lolium multiflorum Lam.): 4 (Herbicidal ratio of 70% or higher and lower than 90%)
- P (Stellaria media) herbicidal effect grade (Stellaria media): 0 (Herbicidal ratio of 5% or lower (almost no effect))

SMILES: CC(CC1CC(O)=C(c2c(C)cc(C)cc2C)C1=O)=NOC(C)C (stereo not shown) [1-052]
- H (Echinochloa crus-galli var. crus-galli) herbicidal effect grade [1]: 5 (Herbicidal ratio of 90% or more (almost completely withered))
- O (Chenopodium album) herbicidal effect grade (Chenopodium album): 0 (Herbicidal ratio of 5% or lower (almost no effect))
- J (Alopecurus myosuroides) herbicidal effect grade (Alopecurus myosuroides): 5 (Herbicidal ratio of 90% or more (almost completely withered))
- melting point: 93 to 95 °C
- K (Lolium multiflorum Lam.) herbicidal effect grade (Lolium multiflorum Lam.): 5 (Herbicidal ratio of 90% or more (almost completely withered))
- P (Stellaria media) herbicidal effect grade (Stellaria media): 0 (Herbicidal ratio of 5% or lower (almost no effect))

SMILES: CC(CC1CC(O)=C(c2c(C)cc(C)cc2C)C1=O)=NOC(C)(C)C (stereo not shown) [1-053]
- H (Echinochloa crus-galli var. crus-galli) herbicidal effect grade [1]: 5 (Herbicidal ratio of 90% or more (almost completely withered))
- O (Chenopodium album) herbicidal effect grade (Chenopodium album): 0 (Herbicidal ratio of 5% or lower (almost no effect))
- J (Alopecurus myosuroides) herbicidal effect grade (Alopecurus myosuroides): 3 (Herbicidal ratio of 40% or higher and lower than 70%)
- melting point: 145 to 147 °C
- K (Lolium multiflorum Lam.) herbicidal effect grade (Lolium multiflorum Lam.): 5 (Herbicidal ratio of 90% or more (almost completely withered))
- P (Stellaria media) herbicidal effect grade (Stellaria media): 0 (Herbicidal ratio of 5% or lower (almost no effect))

Further lines, with some results ahead:

- melting point: 95 to 98 °C
SMILES: CC(CC1CC(O)=C(c2c(C)cc(C)cc2C)C1=O)=NO (stereo not shown) [1-058]
- H (Echinochloa crus-galli var. crus-galli) herbicidal effect grade [1]: 5 (Herbicidal ratio of 90% or more (almost completely withered))
- O (Chenopodium album) herbicidal effect grade (Chenopodium album): 0 (Herbicidal ratio of 5% or lower (almost no effect))
- J (Alopecurus myosuroides) herbicidal effect grade (Alopecurus myosuroides): 5 (Herbicidal ratio of 90% or more (almost completely withered))
- K (Lolium multiflorum Lam.) herbicidal effect grade (Lolium multiflorum Lam.): 5 (Herbicidal ratio of 90% or more (almost completely withered))
- P (Stellaria media) herbicidal effect grade (Stellaria media): 0 (Herbicidal ratio of 5% or lower (almost no effect))

- melting point: 163 to 164 °C
SMILES: CON=C(CC1CC(O)=C(c2c(C)cc(C)cc2C)C1=O)C(C)(C)C (stereo not shown) [1-059]
- H (Echinochloa crus-galli var. crus-galli) herbicidal effect grade [1]: 4 (Herbicidal ratio of 70% or higher and lower than 90%)
- J (Alopecurus myosuroides) herbicidal effect grade (Alopecurus myosuroides): 3 (Herbicidal ratio of 40% or higher and lower than 70%)
- K (Lolium multiflorum Lam.) herbicidal effect grade (Lolium multiflorum Lam.): 5 (Herbicidal ratio of 90% or more (almost completely withered))
- P (Stellaria media) herbicidal effect grade (Stellaria media): 0 (Herbicidal ratio of 5% or lower (almost no effect))

- melting point: 134 to 137 °C
SMILES: CCCC(CC1CC(O)=C(c2c(C)cc(C)cc2C)C1=O)=NOC (stereo not shown) [1-062]
- Q (Galium spurium) herbicidal effect grade (Galium spurium): 0 (Herbicidal ratio of 5% or lower (almost no effect))
- H (Echinochloa crus-galli var. crus-galli) herbicidal effect grade [1]: 5 (Herbicidal ratio of 90% or more (almost completely withered))
- O (Chenopodium album) herbicidal effect grade (Chenopodium album): 0 (Herbicidal ratio of 5% or lower (almost no effect))
- J (Alopecurus myosuroides) herbicidal effect grade (Alopecurus myosuroides): 5 (Herbicidal ratio of 90% or more (almost completely withered))
- K (Lolium multiflorum Lam.) herbicidal effect grade (Lolium multiflorum Lam.): 5 (Herbicidal ratio of 90% or more (almost completely withered))
- P (Stellaria media) herbicidal effect grade (Stellaria media): 0 (Herbicidal ratio of 5% or lower (almost no effect))

- melting point: 154 to 156 °C
SMILES: CCC(C)C(CC1CC(O)=C(c2c(C)cc(C)cc2C)C1=O)=NOC (stereo not shown) [1-066]
- Q (Galium spurium) herbicidal effect grade (Galium spurium): 0 (Herbicidal ratio of 5% or lower (almost no effect))
- H (Echinochloa crus-galli var. crus-galli) herbicidal effect grade [1]: 5 (Herbicidal ratio of 90% or more (almost completely withered))
- O (Chenopodium album) herbicidal effect grade (Chenopodium album): 0 (Herbicidal ratio of 5% or lower (almost no effect))
- J (Alopecurus myosuroides) herbicidal effect grade (Alopecurus myosuroides): 5 (Herbicidal ratio of 90% or more (almost completely withered))
- K (Lolium multiflorum Lam.) herbicidal effect grade (Lolium multiflorum Lam.): 5 (Herbicidal ratio of 90% or more (almost completely withered))
- P (Stellaria media) herbicidal effect grade (Stellaria media): 0 (Herbicidal ratio of 5% or lower (almost no effect))

Source: patent US11000033B2, “Ketone or oxime compound, and herbicide” (NISSAN CHEMICAL CORPORATION, priority 2014, dated 2021)
